{"source": "patent US20210275443A1", "about": "“SUSTAINED-RELEASE INJECTION PREPARATION CONTAINING DONEPEZIL DERIVATIVE” (NANJING NORATECH PHARMACEUTICAL CO., LTD., priority 2018, published 2021)", "conditions": "after i.m. administration of the suspension", "procedure": "There were 3 animals in each group. […] The whole blood was centrifuged to collect plasma, which was transferred to a 96-well plate, and stored at −20° C. for detection by LC-MS/MS. The drug concentration at each sampling time was determined by measuring the standard curve of reference donepezil in plasma.", "data": [{"compound": "CCCCCCC(=O)OC1=C(CC2CCN(Cc3ccccc3)CC2)Cc2cc(OC)c(OC)cc21", "note": "[donepezil heptanoate, Donepezil Heptanoate]", "values": [{"measurement": "Metabolism of the prodrug into donepezil after administration", "result": "rapidly metabolized into donepezil"}]}]}
